Assay results as given in PubChem BioAssay (NCI).
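Test compounds were applied to cells in 96-well plates for 48 hours at 5 doses. GI50 marks 50% less growth. The concentration for full growth arrest is given as TGI.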

Legend:
Assay in all cases: inhibition of tumour cell growth, NCI panel, 48 h
[1] = system: CAKI-1 renal
[2] = system: NCI-H460 lung
[3] = system: HT29 colon
[4] = system: NCI-H23 lung
[5] = system: M14 melanoma
[6] = system: HCC-2998 colon
[7] = system: UACC-257 melanoma
[8] = system: ACHN renal
[9] = system: SF-268 CNS
[10] = system: A498 renal
[11] = system: HCT-15 colon
[12] = system: OVCAR-8 ovarian
[13] = system: SF-539 CNS
[14] = system: RPMI-8226 leukemia
[15] = system: RXF 393 renal
[16] = system: SK-MEL-2 melanoma
[17] = system: IGROV1 ovarian
[18] = system: CCRF-CEM leukemia
[19] = system: SK-OV-3 ovarian
[20] = system: UO-31 renal
[21] = system: NCI-H226 lung
[22] = system: MCF7 breast
[23] = system: SK-MEL-5 melanoma
[24] = system: HCT-116 colon
[25] = system: 786-0 renal
[26] = system: SW-620 colon
[27] = system: HS 578T breast
[28] = system: U251 CNS
[29] = system: MDA-MB-435
[30] = system: MDA-MB-231 breast
[31] = system: A549 NSCLC
[32] = system: DU-145 prostate
[33] = system: COLO 205 colon
[34] = system: KM12 colon
[35] = system: EKVX NSCLC
[36] = system: HOP-92 NSCLC
[37] = system: NCI-H522 lung
[38] = system: SF-295 CNS
[39] = system: LOX IMVI melanoma
[40] = system: SNB-19 CNS
[41] = system: OVCAR-4 ovarian
[42] = system: HL-60(TB) leukemia
[43] = system: SR leukemia
[44] = system: TK-10 renal
[45] = system: SNB-75 CNS
[46] = system: NCI/ADR-RES ovarian
[47] = system: BT-549 breast
[48] = system: OVCAR-3 ovarian
[49] = system: OVCAR-5 ovarian
[50] = system: SN12C renal
[51] = system: T-47D breast
[52] = system: SK-MEL-28 melanoma
[53] = system: MALME-3M melanoma
[54] = system: K-562 leukemia
[55] = system: PC-3 prostate
[56] = system: HOP-62 NSCLC
[57] = system: MOLT-4 leukemia
[58] = system: UACC-62 melanoma

## CN(C)CCCNc1nn2c(=O)c3ccccc3nc2c2ccccc12
[1]
  GI50: 4.49 µM
  TGI: 25.3 µM
[2]
  GI50: 3.35 µM
  TGI: 13.6 µM
[3]
  GI50: 3.46 µM
  TGI: 14.7 µM
[4]
  GI50: 5.89 µM
  TGI: 24.7 µM
[5]
  GI50: 11.8 µM
  TGI: 24.5 µM
[6]
  GI50: 11.6 µM
  TGI: 26.9 µM
[7]
  GI50: 16 µM
  TGI: 32.6 µM
[8]
  GI50: 3.75 µM
  TGI: 15 µM
[9]
  GI50: 7.25 µM
  TGI: 37.9 µM
[10]
  GI50: 9.06 µM
  TGI: 21.4 µM
[11]
  GI50: 7.05 µM
  TGI: 30.2 µM
[12]
  GI50: 7.08 µM
  TGI: 40.7 µM
[13]
  GI50: 3.95 µM
  TGI: 15.4 µM
[14]
  GI50: 11.9 µM
  TGI: 33.7 µM
[15]
  GI50: 14.2 µM
  TGI: 30.6 µM
[16]
  GI50: 20.1 µM
  TGI: 43.8 µM
[17]
  GI50: 6.19 µM
  TGI: 47.8 µM
[18]
  GI50: 13.7 µM
  TGI: 48.5 µM
[19]
  GI50: 5.43 µM
  TGI: 22.8 µM
[20]
  GI50: 3.55 µM
  TGI: 18.2 µM
[21]
  GI50: 5.13 µM
  TGI: 25.5 µM
[22]
  GI50: 3.43 µM
  TGI: 15.6 µM
[23]
  GI50: 7.74 µM
  TGI: 20.9 µM
[24]
  GI50: 3.72 µM
  TGI: 15.7 µM
[25]
  GI50: 10.9 µM
  TGI: 23.7 µM
[26]
  GI50: 4.94 µM
  TGI: 19 µM
[27]
  GI50: 3.67 µM
  TGI: 19.9 µM
[28]
  GI50: 10.8 µM
  TGI: 26.5 µM
[29]
  GI50: 6.24 µM
  TGI: 22.5 µM
[30]
  GI50: 8.02 µM
  TGI: 28.1 µM
[31]
  GI50: 5.64 µM
  TGI: 25.2 µM
[32]
  GI50: 10.4 µM
  TGI: 28.4 µM
[33]
  GI50: 2.39 µM
  TGI: 13 µM
[34]
  GI50: 11.2 µM
  TGI: 27.2 µM
[35]
  GI50: 14.4 µM
  TGI: 51.1 µM
[36]
  GI50: 4.13 µM
  TGI: 59.3 µM
[37]
  GI50: 2.14 µM
  TGI: 24 µM
[38]
  GI50: 3.86 µM
  TGI: 24.5 µM
[39]
  GI50: 3.8 µM
  TGI: 17.2 µM
[40]
  GI50: 13.2 µM
  TGI: 43.9 µM
[41]
  GI50: 10.4 µM
  TGI: 22.4 µM
[42]
  GI50: 18.1 µM
  TGI: 72.7 µM
[43]
  GI50: 2.55 µM
  TGI: 8.74 µM
[44]
  GI50: 11.1 µM
  TGI: 45.4 µM
[45]
  GI50: 2.73 µM
  TGI: 51.1 µM
[46]
  GI50: 12.3 µM
  TGI: 35.5 µM
[47]
  GI50: 10.9 µM
  TGI: 45.7 µM
[48]
  GI50: 10.5 µM
  TGI: 26.4 µM
[49]
  GI50: 12.8 µM
  TGI: 34.3 µM
[50]
  GI50: 5.95 µM
  TGI: > 100 µM
[51]
  GI50: 12.7 µM
  TGI: 33.6 µM
[52]
  GI50: 15.8 µM
  TGI: 29.3 µM
[53]
  GI50: 11.8 µM
  TGI: 29.8 µM
[54]
  GI50: 9.94 µM
  TGI: 31.8 µM
[55]
  GI50: 11.7 µM
  TGI: 36.9 µM
[56]
  GI50: 8.26 µM
  TGI: 21.5 µM
[57]
  GI50: 2.47 µM
  TGI: 7.16 µM

## COc1ccc(C(=O)c2cc(OC)c(OC)c(OC)c2)cc1OC(C)=O
[1]
  GI50: 0.0746 µM
  TGI: > 100 µM
[2]
  GI50: 0.0379 µM
  TGI: > 100 µM
[3]
  GI50: 1.15 µM
  TGI: > 100 µM
[4]
  GI50: 0.0662 µM
  TGI: > 100 µM
[5]
  GI50: < 0.0143 µM
  TGI: > 100 µM
[6]
  GI50: 0.04 µM
  TGI: > 100 µM
[7]
  GI50: > 100 µM
  TGI: > 100 µM
[58]
  GI50: 0.448 µM
  TGI: > 100 µM
[8]
  GI50: 0.0379 µM
  TGI: > 100 µM
[9]
  GI50: 0.0883 µM
  TGI: > 100 µM
[10]
  GI50: 1.61 µM
  TGI: 6.43 µM
[11]
  GI50: < 0.0136 µM
  TGI: > 100 µM
[12]
  GI50: 0.0451 µM
  TGI: > 100 µM
[13]
  GI50: < 0.01 µM
  TGI: 0.0376 µM
[14]
  GI50: 0.0324 µM
  TGI: 26.8 µM
[15]
  GI50: 0.0391 µM
  TGI: > 100 µM
[16]
  GI50: 0.0848 µM
  TGI: > 100 µM
[17]
  GI50: 0.272 µM
  TGI: > 100 µM
[18]
  GI50: 0.0353 µM
  TGI: > 100 µM
[19]
  GI50: 0.0817 µM
  TGI: > 100 µM
[20]
  GI50: 0.195 µM
  TGI: > 100 µM
[21]
  GI50: 8.71 µM
  TGI: > 100 µM
[22]
  GI50: 0.0346 µM
  TGI: > 100 µM
[23]
  GI50: 0.0325 µM
  TGI: 0.311 µM
[24]
  GI50: 0.0297 µM
  TGI: > 100 µM
[25]
  GI50: 0.672 µM
  TGI: > 100 µM
[26]
  GI50: < 0.0184 µM
  TGI: > 100 µM
[27]
  GI50: 0.0235 µM
  TGI: > 100 µM
[28]
  GI50: 0.0392 µM
  TGI: > 100 µM
[29]
  GI50: < 0.01 µM
  TGI: 0.0102 µM
[30]
  GI50: 0.0369 µM
  TGI: > 100 µM
[31]
  GI50: 0.115 µM
  TGI: > 100 µM
[32]
  GI50: 0.0324 µM
  TGI: > 100 µM
[33]
  GI50: 0.786 µM
  TGI: 10.1 µM
[34]
  GI50: < 0.0133 µM
  TGI: > 100 µM
[35]
  GI50: 2.24 µM
  TGI: > 100 µM
[36]
  GI50: 1.73 µM
  TGI: > 100 µM
[37]
  GI50: 0.017 µM
  TGI: > 100 µM
[38]
  GI50: 0.0796 µM
  TGI: > 100 µM
[39]
  GI50: 0.022 µM
  TGI: > 100 µM
[40]
  GI50: 0.0381 µM
  TGI: > 100 µM
[41]
  GI50: 0.0822 µM
  TGI: > 100 µM
[42]
  GI50: < 0.0141 µM
  TGI: < 0.0228 µM
[43]
  GI50: < 0.01 µM
  TGI: > 75.2 µM
[44]
  GI50: 59 µM
  TGI: > 100 µM
[45]
  GI50: < 0.0145 µM
  TGI: > 100 µM
[46]
  GI50: < 0.0153 µM
  TGI: > 100 µM
[47]
  GI50: < 0.0199 µM
  TGI: > 67.5 µM
[48]
  GI50: 0.0292 µM
  TGI: 0.0848 µM
[49]
  GI50: 4.55 µM
  TGI: > 100 µM
[50]
  GI50: 0.0509 µM
  TGI: > 100 µM
[51]
  GI50: 19.9 µM
  TGI: > 100 µM
[52]
  GI50: 11.2 µM
  TGI: > 100 µM
[53]
  GI50: 35.4 µM
  TGI: > 100 µM
[54]
  GI50: < 0.01 µM
  TGI: > 100 µM
[55]
  GI50: 0.0208 µM
  TGI: > 100 µM
[56]
  GI50: 0.0618 µM
  TGI: > 100 µM
[57]
  GI50: < 0.0199 µM
  TGI: > 43.3 µM
